Measured values from PubChem BioAssay AID463206 (Broad Institute, 2010).
Active and inactive are the calls of the source.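 How the source made its calls: active means caspase luminescence falls with dose and the half-maximal concentration AC50 from the fitted curve is at or below a set limit; inconclusive means flat fit at 30 to 70% signal loss, or invalid fit; inactive means AC50 above the limit, or signal rises instead.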

Each compound was assayed on INS-1E cytokine-induced caspase-3/7, Caspase-Glo luminescence, 48 h (assay: suppression of cytokine-driven beta-cell apoptosis – INS-1E rat cells, luminescence, orthogonal assay for beta-cell apoptosis protection project, dose response (AID 463206)).
With `O=C(Nc1nc2ccc(F)cc2s1)C1CCN(S(=O)(=O)c2cc([N+](=O)[O-])ccc2Cl)CC1` the AC50 was > 26 µM (inactive). In the case of `CCn1cc(C(=O)O)c(=O)c2cc(F)c(N/N=C/c3ccccc3[N+](=O)[O-])cc21`, the AC50 is reported as > 12 µM (inactive). In the case of `Cc1cc(C)n(-c2nc(NCCN(C)C)c3c4c(sc3n2)CCCC4)n1`, the AC50 is reported as 13.1 µM. For `O=C1N/C(=N\N=C\c2cccnc2)SC1Cc1ccc(SC(F)F)cc1` (configuration not stated), the AC50 was > 26 µM (inactive). `COc1ccc(Nc2ccc3c(c2)=NC2(CCCCC2)[N+]=3[O-])cc1` was tested, and the AC50 was > 26 µM (inactive). In the case of `COCC1CCCCN1C(=O)c1cc(COc2ccc3ncccc3c2)on1` (configuration not stated), the AC50 is reported as > 26 µM (inactive). For `Cc1ccc(C(=O)NC2CCCc3c2cnn3-c2ccc(F)cc2F)cn1` (configuration not stated), the AC50 was > 26 µM (inactive). In the case of `O=C(Cc1ccc(Cl)cc1)c1c[nH]c(C(=O)NCc2cccnc2)c1`, the AC50 is reported as > 26 µM (inactive). In the case of `O=[N+]([O-])c1ccc(/C=N/n2c(CO)nc3ccccc32)s1`, the AC50 is reported as > 26 µM (inactive). With `Cc1onc(-c2ccccc2)c1C(=O)NC(=S)NNC(=O)c1ccccc1O` the AC50 was > 26 µM (inactive). `COC(=O)C1CN(C#N)N(c2ccc(Cl)cc2)C12c1ccccc1-c1ccccc12` (configuration not stated) was tested, and the AC50 was > 26 µM (inactive). `COc1cnc(-c2ccccn2)nc1Oc1ccc(Cl)c2ccccc12` was tested, and the AC50 was > 26 µM (inactive). In the case of `NC(=O)c1ccccc1OC1CCC1`, the AC50 is reported as > 26 µM (inactive). For `C#CCOCCOCCOCCNc1nc(N2CCN(C(=O)CCCCCCCCCCNC(=O)[C@H]([C@@H](C)CC)n3cc(CCCCCN)nn3)CC2)nc(N2CCN(C(=O)CCCCCCCCCCNC(=O)[C@@H]([C@H](C)O)n3cc(C)nn3)CC2)n1`, the AC50 was > 26 µM (inactive). With `CCC(C)Sc1ccc(-c2nc3ccc(C)cn3c2NCc2ccccc2)cc1OC` (configuration not stated) the AC50 was > 26 µM (inactive). For `O=c1c2ccccc2nc(COc2ccccc2)n1/N=C/c1cc([N+](=O)[O-])ccc1O`, the AC50 was > 26 µM (inactive). For `On1onc2c3cc(-c4ccccc4)nc3ccc21`, the AC50 was > 26 µM (inactive). With `COC(=O)C[C@]1(C(=O)OC)CN(C#N)N(c2ccc(Cl)cc2)C12c1ccccc1-c1ccccc12` the AC50 was > 26 µM (inactive). In the case of `O=C(Nc1nc2c(F)cc(F)cc2s1)c1ccccn1`, the AC50 is reported as > 26 µM (inactive). For `COc1ccc(NS(=O)(=O)c2ccc(N3CCCCC3)c(N)c2)cc1`, the AC50 was > 26 µM (inactive). In the case of `Cc1cc(C(C)(C)CC(C)(C)C)ccc1OCCOCC[N+](C)(C)Cc1ccccc1`, the AC50 is reported as > 26 µM (inactive). For `C#CCOCCOCCOCCNc1nc(N2CCN(C(=O)CCCCCCCCCCNC(=O)[C@H]([C@@H](C)CC)n3cc(CCCCCN)nn3)CC2)nc(N2CCN(C(=O)CCCCCCCCCCNC(=O)[C@H]([C@@H](C)CC)n3cc(CCCCN=C(N)N)nn3)CC2)n1`, the AC50 was > 26 µM (inactive). For `Cc1ccc(C)c(S(=O)(=O)Nc2cc(SCC(=O)O)c(O)c3ccccc23)c1`, the AC50 was > 26 µM (inactive). `Cc1nc(N2CCN(C(=O)c3ccco3)CC2)c2c3c(sc2n1)CC(C)CC3` (configuration not stated) was tested, and the AC50 was > 26 µM (inactive). `CCN(CC)CCCNC1=C(Cl)C(=O)c2ccccc2C1=O` was tested, and the AC50 was > 26 µM (inactive). For `C/C(=N\Nc1ccc2nncn2n1)c1ccccn1`, the AC50 was > 26 µM (inactive). With `O=C(Nc1ccc(Nc2ccncc2)cc1)c1ccc(Nc2ccnc3ccc([N+](=O)[O-])cc23)cc1[N+](=O)[O-]` the AC50 was > 26 µM (inactive). For `Cc1ccn2c(Nc3ccccc3)c(-c3ccccn3)nc2c1`, the AC50 was > 26 µM (inactive). In the case of `Cc1ccc2[nH]c(C(=O)N/N=C/c3ccccc3O)c(C)c2c1`, the AC50 is reported as > 26 µM (inactive). In the case of `N#CC(C#N)=C(Nc1ccc(F)cc1)SCc1cccc(Br)c1`, the AC50 is reported as > 26 µM (inactive). For `COc1ccc([N+](=O)[O-])c(S(=O)(=O)c2ccc(Cl)cc2)n1`, the AC50 was > 26 µM (inactive). `COc1ccc(C2/C=C\CN(C(=O)c3ccc(C)cc3)[C@H](Cc3ccccc3)C(=O)N2Cc2ccc(F)cc2)cc1` (some centres not stated) was tested, and the AC50 was > 26 µM (inactive). In the case of `Cc1ccc(-c2nn(-c3ccccc3)cc2/C=N/NC(=O)c2ccc(Br)o2)cc1`, the AC50 is reported as > 26 µM (inactive). With `COc1ccc(OC)c2c1C(=O)C(Cl)=C(Cl)C2=O` the AC50 was > 26 µM (inactive). `Brc1ccc(N/N=C(/N=Nc2nn[nH]n2)c2ccccc2)cc1` was tested, and the AC50 was > 26 µM (inactive). With `O=C(NCc1nc2ccccc2[nH]1)C1=C[C@@H](C2CCCCC2)C[C@@H](OCc2ccc(CO)cc2)O1` the AC50 was > 26 µM (inactive). `Cc1nnc2ccc(Oc3ccc(-c4ccccc4)cc3)nn12` was tested, and the AC50 was > 26 µM (inactive). `Cc1ccc(C(=O)N/C(=C\c2ccc(-c3ccc(Cl)cc3)o2)C(=O)NCCCN(C)C)cc1` gave an AC50 of 11.9 µM. In the case of `CCCCn1c(=N)n(CC(=O)c2ccc(Br)s2)c2ccccc21`, the AC50 is reported as > 26 µM (inactive). `O=[N+]([O-])c1cc(CN2CCN(c3ccccc3)CC2)c(O)c2ncccc12` was tested, and the AC50 was > 26 µM (inactive). `COc1cc(NC(=O)c2cc3ccccc3cc2O)c(OC)cc1Cl` was tested, and the AC50 was > 26 µM (inactive). In the case of `O=C(CCCCC(=O)Nc1ccc(F)cc1F)Nc1ccc(F)cc1F`, the AC50 is reported as > 26 µM (inactive). For `Cn1nc(C(C)(C)C)cc1C(=O)NCc1ccc2c(c1)OCO2`, the AC50 was > 26 µM (inactive). `O=C(N/N=C/c1cccnc1)c1ccccc1NS(=O)(=O)c1cccs1` was tested, and the AC50 was > 26 µM (inactive). With `CCN1C/C(=C/c2ccc(OC)c(O)c2)C(=O)/C(=C/c2ccc(OC)c(O)c2)C1` the AC50 was > 26 µM (inactive). With `Cc1cccc(NC(=S)Nc2ccc3cn[nH]c3c2)c1` the AC50 was > 26 µM (inactive). For `C=CC[n+]1c(-c2ccc(OCC)cc2)csc1NNC(=O)Nc1ccccc1`, the AC50 was > 26 µM (inactive). `Oc1ccc2ccccc2c1N=Nc1ccccn1` was tested, and the AC50 was > 26 µM (inactive). `CN1/C(=C\C(=S)NC(=O)c2cccc(Br)c2)C(C)(C)c2ccccc21` was tested, and the AC50 was > 26 µM (inactive). With `COc1cc(NC(=O)c2[nH]cnc2C(N)=O)cc(C(=O)Nc2cccc(C(F)(F)F)c2)c1` the AC50 was > 26 µM (inactive). With `CCCCCCCCn1ccc(=N)cc1` the AC50 was > 26 µM (inactive). `CCCCCc1cc(=O)oc2c(C(CCN3CCCC(C)C3)c3ccc(OC)cc3)c(OC)cc(OC)c12` (configuration not stated) was tested, and the AC50 was > 26 µM (inactive). With `Cc1ccc(-c2nn(-c3ccccc3)cc2/C=N/NC(=O)c2ccc3c(c2)OCO3)cc1` the AC50 was > 26 µM (inactive). For `NC(=NCCCCCCN=C(N)/N=C(\N)Nc1ccc(Cl)cc1)/N=C(\N)Nc1ccc(Cl)cc1`, the AC50 was > 26 µM (inactive). With `CC(C)c1ccc2c(c1)C(N1CCNCC1)Cc1ccc(F)cc1S2` (configuration not stated) the AC50 was > 26 µM (inactive). `O=C1C=C(c2cccs2)C[C@H](c2ccccc2)[C@H]1n1nnc([N+](=O)[O-])n1` was tested, and the AC50 was > 26 µM (inactive). In the case of `COc1cccc(/C=N/Nc2ncnc3scc(-c4ccccc4)c23)c1O`, the AC50 is reported as > 26 µM (inactive). With `COc1cc(SC)ccc1C(=O)Nc1nc2ccccc2[nH]1` the AC50 was > 26 µM (inactive). With `NC(N)=N/N=C/c1ccc(N(c2ccccc2)c2ccccc2)cc1` the AC50 was > 26 µM (inactive). In the case of `C=C1CCc2c([nH]c3ccc(OCC(C)C)cc23)C1=O`, the AC50 is reported as > 26 µM (inactive). `C/C(=N\NC(=O)C(c1ccccc1)c1ccccc1)c1ccccn1` was tested, and the AC50 was > 26 µM (inactive). `Cc1ccc(Nc2cc(C)nc(NCc3ccccc3)n2)cc1` was tested, and the AC50 was > 12 µM (inactive). With `COc1cc(/C=C/C(=O)c2ccc([N+](=O)[O-])o2)ccc1O` the AC50 was > 26 µM (inactive). `COc1ccc2c(c1)c(/C=N/Nc1nc3ccccc3[nH]1)c(C)n2C` was tested, and the AC50 was > 26 µM (inactive). `O=[N+]([O-])c1cccc(/C=N/n2cnnc2)c1` was tested, and the AC50 was > 26 µM (inactive). In the case of `COc1ccc(NC(=O)N(C)C[C@H]2Oc3c(NS(=O)(=O)c4ccc(F)cc4)cccc3C(=O)N([C@H](C)CO)C[C@@H]2C)cc1`, the AC50 is reported as > 26 µM (inactive). With `COc1ccc(CCNc2ncnc3c2oc2ccccc23)cc1OC` the AC50 was > 26 µM (inactive). `C#CC[N+](C)(C)CCCCCCCCCCCC` was tested, and the AC50 was > 26 µM (inactive). In the case of `O=C(N/N=C/c1c(O)ccc2ccccc12)c1[nH]ncc1Br`, the AC50 is reported as > 26 µM (inactive). In the case of `COc1cc(CNC(C)c2ccccc2)cc(Br)c1OCc1ccc(F)cc1` (configuration not stated), the AC50 is reported as > 26 µM (inactive). In the case of `CN(C)c1cc[n+](CC(=O)Nc2ccc(Oc3ccccc3)cc2)cc1`, the AC50 is reported as > 26 µM (inactive). `O=C(c1cc2sccc2n1Cc1ccccc1)N1CCN(c2nc3ccccc3s2)CC1` was tested, and the AC50 was > 26 µM (inactive). In the case of `O=[N+]([O-])c1ccc(N=Nc2c(Cl)cc(O)cc2Cl)cc1`, the AC50 is reported as > 26 µM (inactive). For `CCN(CC)C(=O)C1CCCN(C(=S)Nc2cccc3ccccc23)C1` (configuration not stated), the AC50 was > 26 µM (inactive). With `CCN(CC)c1ccc(CNc2nc3ccccc3n2CCN2CCCCC2)cc1` the AC50 was > 26 µM (inactive). With `COc1cccc(F)c1C(C[N+](=O)[O-])c1c(N)n(C)c(=O)n(C)c1=O` (configuration not stated) the AC50 was > 26 µM (inactive). `CC(=O)c1ccccc1OCCOCCOc1ccccc1C(C)=O` was tested, and the AC50 was > 26 µM (inactive). `CC(C)CC(=O)NC(c1cccs1)c1ccc2cccnc2c1O` (configuration not stated) was tested, and the AC50 was > 26 µM (inactive). For `Cc1cc(/C=N/n2cnnc2)c(C)n1-c1ccc(OCc2ccccc2F)cc1`, the AC50 was > 26 µM (inactive). In the case of `O=C(CN1CCOCC1)N/N=C/c1c(O)ccc2ccccc12`, the AC50 is reported as > 26 µM (inactive). For `O=C(C1=C[C@@H](c2ccc(C(F)(F)F)cc2)C[C@@H](OCCCCO)O1)N1CCN(Cc2ccccc2)CC1`, the AC50 was > 26 µM (inactive). In the case of `NC1=NC[C@@H](CC2CCCCC2)N1CCc1cc(C(F)(F)F)cc(C(F)(F)F)c1`, the AC50 is reported as > 26 µM (inactive). In the case of `c1cnc(N2CCN(Cc3c[nH]c4ccccc34)CC2)nc1`, the AC50 is reported as > 26 µM (inactive). In the case of `COc1cc2c(cc1OC)C(NC(=O)C(F)(F)F)CNC2=O` (configuration not stated), the AC50 is reported as > 26 µM (inactive). In the case of `O=C(c1cc(COc2cccc3cnccc23)on1)N1CCCC(CCCO)C1` (configuration not stated), the AC50 is reported as > 26 µM (inactive). In the case of `COc1ccc(-c2nc3ccc(C)cn3c2NCc2ccccc2)cc1SC1CCCCC1`, the AC50 is reported as > 26 µM (inactive). With `O=C(Oc1c(CN2CCOCC2)cc(Cl)c2cccnc12)c1ccccc1` the AC50 was > 26 µM (inactive). In the case of `CC1(C)C[C@@H]2C[C@@](C)(CN2C(=O)c2cc(COc3cccc(C(F)(F)F)c3)on2)C1`, the AC50 is reported as > 12 µM (inactive). In the case of `O=C(NNC(=O)c1ccccc1O)c1ccc(Cl)c(S(=O)(=O)N2CCc3ccccc32)c1`, the AC50 is reported as 27.2 µM. In the case of `CC1=NNC(=O)/C1=C\c1cn(-c2ccccc2)nc1-c1ccc(Cl)cc1`, the AC50 is reported as > 26 µM (inactive). `O=C(CN1CCCc2ccccc21)N/N=C/c1ccccc1O` was tested, and the AC50 was > 26 µM (inactive). With `COc1ccc(-c2c([C@H]3[C@H]4C=CC[C@@H](C)[C@@H]4C(=O)N3Cc3ccccc3)ccc3ccccc23)cc1` the AC50 was > 26 µM (inactive).
